Experimental data as given in US20230295119A1, “SUBSTITUTED PYRIDINES FOR THE TREATMENT OF INFLAMMATORY DISEASES” (GOSSAMER BIO SERVICES, INC., priority 2020, published 2023).
pIC50: −log10 of the molar value.

Columns and labels:
TYK2 JH2 domain = TYK2 JH2 domain (Homo sapiens (Human), UniProt P29597); assay: TYK2 JH2 NanoBRET assay; assay type: binding; settings: Table 20, read-out: TYK2 IC50
In short: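 Tracer displacement measured by BRET ratio (acceptor over donor) in live HEK293T cells transfected with a NanoLuc-tagged TYK2 JH2 construct; cells co-exposed to test compound and 0.5 µM final K10 tracer for 2 h before substrate/extracellular inhibitor addition.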

human JAK1 = human JAK1 (Homo sapiens (Human), UniProt P23458); assay: JAK1 TR-FRET kinase assay; assay type: biochemical; settings: TR-FRET, JAK1 2.5 nM
Sequence of human JAK1 (P23458 whole entry): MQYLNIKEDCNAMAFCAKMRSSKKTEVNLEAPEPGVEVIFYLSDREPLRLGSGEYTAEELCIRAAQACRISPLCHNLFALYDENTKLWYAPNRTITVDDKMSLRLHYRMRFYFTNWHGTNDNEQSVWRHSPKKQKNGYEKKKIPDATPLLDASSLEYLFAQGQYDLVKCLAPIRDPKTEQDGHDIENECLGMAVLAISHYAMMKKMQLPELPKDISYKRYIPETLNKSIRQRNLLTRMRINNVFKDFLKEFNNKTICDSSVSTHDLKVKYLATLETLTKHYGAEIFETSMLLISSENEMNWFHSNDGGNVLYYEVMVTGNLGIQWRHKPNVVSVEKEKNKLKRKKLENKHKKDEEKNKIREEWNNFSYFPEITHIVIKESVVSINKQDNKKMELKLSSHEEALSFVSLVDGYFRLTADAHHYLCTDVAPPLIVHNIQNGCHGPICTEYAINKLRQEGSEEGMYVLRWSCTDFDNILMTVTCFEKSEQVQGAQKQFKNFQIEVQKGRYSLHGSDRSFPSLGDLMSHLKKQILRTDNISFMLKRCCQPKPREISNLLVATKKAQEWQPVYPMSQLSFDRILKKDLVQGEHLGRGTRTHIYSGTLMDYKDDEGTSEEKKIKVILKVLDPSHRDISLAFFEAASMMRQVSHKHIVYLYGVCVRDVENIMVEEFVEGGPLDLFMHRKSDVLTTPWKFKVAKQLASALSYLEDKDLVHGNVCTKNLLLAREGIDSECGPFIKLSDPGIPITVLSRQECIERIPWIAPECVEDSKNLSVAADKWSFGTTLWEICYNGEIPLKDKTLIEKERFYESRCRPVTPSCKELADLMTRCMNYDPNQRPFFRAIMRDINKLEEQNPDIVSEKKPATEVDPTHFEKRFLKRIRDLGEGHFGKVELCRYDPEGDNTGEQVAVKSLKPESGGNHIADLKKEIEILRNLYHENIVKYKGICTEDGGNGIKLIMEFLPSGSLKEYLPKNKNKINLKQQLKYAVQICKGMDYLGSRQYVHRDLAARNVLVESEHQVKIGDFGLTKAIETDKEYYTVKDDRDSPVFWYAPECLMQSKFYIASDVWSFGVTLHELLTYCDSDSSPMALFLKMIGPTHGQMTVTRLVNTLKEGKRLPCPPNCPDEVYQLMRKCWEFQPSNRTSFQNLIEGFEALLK

human JAK2 = human JAK2 (Homo sapiens (Human), UniProt O60674); assay: JAK2 TR-FRET kinase assay; assay type: biochemical; settings: JAK2 0.025 nM
Sequence of human JAK2 (O60674 whole entry): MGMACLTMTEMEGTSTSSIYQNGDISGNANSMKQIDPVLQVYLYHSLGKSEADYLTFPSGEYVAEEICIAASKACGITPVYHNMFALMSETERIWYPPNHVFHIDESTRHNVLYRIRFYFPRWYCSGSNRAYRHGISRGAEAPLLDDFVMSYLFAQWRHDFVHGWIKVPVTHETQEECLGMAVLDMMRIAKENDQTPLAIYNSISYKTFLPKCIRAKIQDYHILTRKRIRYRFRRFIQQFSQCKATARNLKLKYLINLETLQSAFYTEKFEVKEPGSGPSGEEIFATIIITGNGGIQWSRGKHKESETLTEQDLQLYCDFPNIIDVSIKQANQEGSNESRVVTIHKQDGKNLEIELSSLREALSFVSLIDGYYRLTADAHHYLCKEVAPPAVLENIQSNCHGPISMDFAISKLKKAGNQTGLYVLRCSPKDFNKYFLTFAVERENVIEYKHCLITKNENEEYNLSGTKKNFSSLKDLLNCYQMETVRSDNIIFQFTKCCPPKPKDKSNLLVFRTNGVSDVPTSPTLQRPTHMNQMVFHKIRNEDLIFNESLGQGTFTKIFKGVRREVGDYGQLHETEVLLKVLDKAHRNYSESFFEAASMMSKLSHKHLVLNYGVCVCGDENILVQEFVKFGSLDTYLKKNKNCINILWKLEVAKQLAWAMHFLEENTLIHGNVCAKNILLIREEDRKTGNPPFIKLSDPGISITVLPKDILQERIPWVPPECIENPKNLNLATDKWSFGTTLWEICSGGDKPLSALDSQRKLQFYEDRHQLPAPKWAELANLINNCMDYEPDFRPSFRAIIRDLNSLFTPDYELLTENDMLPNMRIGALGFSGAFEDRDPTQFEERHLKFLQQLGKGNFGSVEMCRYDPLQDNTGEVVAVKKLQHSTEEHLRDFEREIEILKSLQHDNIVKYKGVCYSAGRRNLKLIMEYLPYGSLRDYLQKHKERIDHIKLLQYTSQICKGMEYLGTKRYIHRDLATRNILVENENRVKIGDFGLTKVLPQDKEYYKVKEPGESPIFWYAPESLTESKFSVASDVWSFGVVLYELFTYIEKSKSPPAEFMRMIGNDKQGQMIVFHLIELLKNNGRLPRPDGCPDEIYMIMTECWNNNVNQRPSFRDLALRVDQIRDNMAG

human JAK3 = human JAK3 (Homo sapiens (Human), UniProt P52333); assay: JAK3 TR-FRET kinase assay; assay type: biochemical; settings: JAK3 0.0125 nM
Sequence of human JAK3 (P52333 whole entry): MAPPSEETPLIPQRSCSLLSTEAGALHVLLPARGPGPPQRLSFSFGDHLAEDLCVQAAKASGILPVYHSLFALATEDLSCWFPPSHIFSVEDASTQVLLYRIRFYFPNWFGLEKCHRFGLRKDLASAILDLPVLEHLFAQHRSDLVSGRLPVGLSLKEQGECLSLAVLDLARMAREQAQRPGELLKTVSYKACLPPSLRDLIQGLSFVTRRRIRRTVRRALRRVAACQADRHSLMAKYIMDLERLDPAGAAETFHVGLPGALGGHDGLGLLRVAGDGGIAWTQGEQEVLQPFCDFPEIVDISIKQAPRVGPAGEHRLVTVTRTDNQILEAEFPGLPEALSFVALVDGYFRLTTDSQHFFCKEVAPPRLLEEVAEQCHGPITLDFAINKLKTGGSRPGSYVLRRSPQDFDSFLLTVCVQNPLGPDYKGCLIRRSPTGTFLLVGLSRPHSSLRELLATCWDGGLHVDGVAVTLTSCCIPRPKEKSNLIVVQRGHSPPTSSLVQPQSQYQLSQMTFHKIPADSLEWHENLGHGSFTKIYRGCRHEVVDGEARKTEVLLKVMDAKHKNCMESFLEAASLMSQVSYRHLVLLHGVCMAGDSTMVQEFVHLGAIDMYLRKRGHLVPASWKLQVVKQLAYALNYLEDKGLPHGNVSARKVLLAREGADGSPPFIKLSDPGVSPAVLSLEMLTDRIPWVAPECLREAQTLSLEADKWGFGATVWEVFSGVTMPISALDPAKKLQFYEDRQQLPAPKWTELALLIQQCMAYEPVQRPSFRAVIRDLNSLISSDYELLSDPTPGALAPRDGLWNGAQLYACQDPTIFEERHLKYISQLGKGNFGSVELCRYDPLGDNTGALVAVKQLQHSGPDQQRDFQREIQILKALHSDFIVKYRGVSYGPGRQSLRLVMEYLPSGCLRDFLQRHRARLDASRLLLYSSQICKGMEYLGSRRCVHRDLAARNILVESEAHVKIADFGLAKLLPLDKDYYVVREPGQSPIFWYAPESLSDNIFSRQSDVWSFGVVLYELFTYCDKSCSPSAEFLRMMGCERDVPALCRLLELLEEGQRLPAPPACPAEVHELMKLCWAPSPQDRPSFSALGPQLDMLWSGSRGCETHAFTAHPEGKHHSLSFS

Sequence of TYK2 JH2 domain (P29597 589-875): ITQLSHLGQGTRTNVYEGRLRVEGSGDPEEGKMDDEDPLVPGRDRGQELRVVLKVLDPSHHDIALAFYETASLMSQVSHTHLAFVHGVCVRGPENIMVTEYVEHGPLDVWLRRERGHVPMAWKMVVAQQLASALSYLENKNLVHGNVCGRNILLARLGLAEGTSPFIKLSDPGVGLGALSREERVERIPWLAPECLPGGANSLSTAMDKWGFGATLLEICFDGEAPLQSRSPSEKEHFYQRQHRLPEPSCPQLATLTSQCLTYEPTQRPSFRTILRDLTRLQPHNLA

Structure (SMILES)	pIC50 (TYK2 JH2 domain)	pIC50 (human JAK1)	pIC50 (human JAK2)	pIC50 (human JAK3)
CCC(=O)c1cnc(Nc2ccc(S(C)(=O)=O)cn2)cc1Nc1ccc(C(=O)N2CCCC2)cc1OC [Compound 13W]	6.30 to 7.30	≤ 6.30	6.30 to 7.30	6.30 to 7.30
CCC(=O)c1cnc(Nc2ccc(S(C)(=O)=O)cn2)cc1Nc1ccc(CO)cc1OC [Compound 13X]	6.30 to 7.30	≤ 6.30	6.30 to 7.30	6.30 to 7.30
CCC(=O)c1cnc(Nc2ccc(S(C)(=O)=O)cn2)cc1Nc1cccc(C(C)(C)O)c1OC [Compound 13Y]	6.30 to 7.30	≤ 6.30	≤ 6.30	≤ 6.30
CCC(=O)c1cnc(Nc2ncc(S(C)(=O)=O)cc2F)cc1Nc1cccc(-c2ncn(C)n2)c1OC [Compound 13Z]	6.30 to 7.30	≤ 6.30	≤ 6.30	≤ 6.30
CCC(=O)c1cnc(Nc2ccc(S(C)(=N)=O)cn2)cc1Nc1cccc(-c2ncn(C)n2)c1OC (centres unmarked) [Compound 14A, imino(6-((4-((2-methoxy-3-(1-methyl-1H-1,2,4-triazol-3-yl)phenyl)amino)-5-propionylpyridin-2-yl)amino)pyridin-3-yl)(methyl)-16-sulfanone]	> 8.30	≤ 6.30	≤ 6.30	≤ 6.30
CCC(=O)c1cnc(Nc2ccc(-n3ccccc3=O)cn2)cc1Nc1cccc(-c2ncn(C)n2)c1OC [Compound 15A, 6′-((4-((2-methoxy-3-(1-methyl-1H-1,2,4-triazol-3-yl)phenyl)amino)-5-propionylpyridin-2-yl)amino)-2H-[1,3′-bipyridin]-2-one]	> 8.30	≤ 6.30	≤ 6.30	≤ 6.30
CCC(=O)c1cnc(Nc2ncc(-n3ccccc3=O)cc2F)cc1Nc1cccc(-c2ncn(C)n2)c1OC [Compound 15AA]	6.30 to 7.30	≤ 6.30	≤ 6.30	≤ 6.30
CCC(=O)c1cnc(Nc2ccc3c(c2)COB3O)cc1Nc1cccc(-c2ncn(C)n2)c1OC [Compound 15BB]	7.30 to 8.30	≤ 6.30	≤ 6.30	≤ 6.30
CCC(=O)c1cnc(Nc2ccc(-c3cn(C)cn3)cn2)cc1Nc1cccc(-c2ncn(C)n2)c1OC [Compound 15B]	> 8.30	≤ 6.30	≤ 6.30	6.30 to 7.30
CCC(=O)c1cnc(Nc2cc3c(cn2)B(O)OC3)cc1Nc1cccc(-c2ncn(C)n2)c1OC [Compound 15CC]	> 8.30	≤ 6.30	≤ 6.30	≤ 6.30
CCC(=O)c1cnc(Nc2ccc(-c3ncn(C)n3)cn2)cc1Nc1cccc(-c2ncn(C)n2)c1OC [Compound 15C]	> 8.30	≤ 6.30	≤ 6.30	≤ 6.30
CCC(=O)c1cnc(Nc2ccc(P(C)(C)=O)cn2)cc1Nc1cccc(-c2ncn(C)n2)c1OC [Compound 15DD]	7.30 to 8.30	≤ 6.30	≤ 6.30	≤ 6.30
CCC(=O)c1cnc(Nc2ccc(-c3cnn(C)c3)cn2)cc1Nc1cccc(-c2ncn(C)n2)c1OC [Compound 15D]	> 8.30	≤ 6.30	≤ 6.30	≤ 6.30
CCC(=O)c1cnc(Nc2cc(-c3cn(C)cn3)ccn2)cc1Nc1cccc(-c2ncn(C)n2)c1OC [Compound 15E]	> 8.30	≤ 6.30	≤ 6.30	≤ 6.30
CCC(=O)c1cnc(Nc2cc(-c3ncn(C)n3)ccn2)cc1Nc1cccc(-c2ncn(C)n2)c1OC [Compound 15F]	> 8.30	≤ 6.30	≤ 6.30	≤ 6.30
CCC(=O)c1cnc(Nc2cc(-c3cnn(C)c3)ccn2)cc1Nc1cccc(-c2ncn(C)n2)c1OC [Compound 15G]	> 8.30	≤ 6.30	≤ 6.30	≤ 6.30
CCC(=O)c1cnc(Nc2ccc(-n3cccn3)cn2)cc1Nc1cccc(-c2ncn(C)n2)c1OC [Compound 15H]	> 8.30	≤ 6.30	≤ 6.30	≤ 6.30
CCC(=O)c1cnc(Nc2ccc(-n3ccnc3)cn2)cc1Nc1cccc(-c2ncn(C)n2)c1OC [Compound 15I]	> 8.30	≤ 6.30	≤ 6.30	≤ 6.30
CCC(=O)c1cnc(Nc2ccc(-c3cn(C)cn3)cn2)cc1Nc1nccc(-c2ncn(C)n2)c1OC [Compound 15J]	> 8.30	≤ 6.30	≤ 6.30	≤ 6.30
COc1c(Nc2cc(Nc3ccc(-c4cn(C)cn4)cn3)ncc2C(=O)C2CC2)cccc1-c1ncn(C)n1 [Compound 15K]	7.30 to 8.30	≤ 6.30	≤ 6.30	≤ 6.30
